Columns and labels:
Assay type in all cases: cell-based, human
[1] = system: peripheral blood mononuclear cells (PBMC); assay: IFN-gamma ELISPOT secretion assay on PBMC (Example 1); conditions: for immune responses against overlapping 20mer peptides: PBMC from three cancer patients, FIG. 3; for specific T-cell responses against Arg-derived peptide: IFN-gamma ELISPOT, PBMC from six melanoma patients, FIG. 1
[2] = system: PBMCs from healthy donors or cancer patients; assay: IFNγ ELISPOT on PBMCs after one week peptide and IL-2 stimulation (Example 2); conditions: for spontaneous IFNγ ELISPOT responses against 20-mer library peptides: cancer (melanoma) patient PBMCs, FIG. 9A
Description: PBMCs from healthy donors or cancer patients were stimulated with 80 μg of arginase-derived peptides and 120 U/ml IL-2 (Peprotech, London, UK, cat. 200-02) for a week. 4-6×10^5 PBMCs were then placed in the bottom of ELISPOT plate (nitrocellulose bottomed 96-well plates by MultiScreen MAIP […]; Millipore, cat. MSIPN4W50) pre-coated with IFN-y capture Ab (Mabtech, cat. 3420-3-1000) and 1-10 μg of arginase derived peptides were added. PBMCs from each patient and donors were set up in duplicates or triplicates for peptide and control stimulations. Cells were incubated in ELISPOT plates in the presence of an antigen for 14-16 hours after which they are washed off and secondary biotinylated Ab (Mabtech, cat. 3420-6-1000) was added. After 2 h incubation unbound secondary antibody was washed off and streptavidin conjugated alkaline phosphatase (AP) (Mabtech, cat. 3310-10) was added for 1 h. Next, unbound conjugated enzyme is washed off and the assay is developed by adding BCIP/NBT substrate (Mabtech, cat. 3650-10). Developed ELISPOT plates were analysed on CTL ImmunoSpot S6 Ultimate-V analyzer using Immunospot software v5.1. Responses were calculated as the difference between average numbers of spots in wells stimulated with Arginase-1 peptides and control wells. We divided the entire arginase-1 protein sequence into overlapping 20-amino-acid-long peptides, generating a library of 31 peptides covering the whole sequence (SEQ ID NOs 18-48)). Each peptide in the library overlapped with the first 10 amino acids of the following peptide. Using this arginase peptide library and the IFNγ ELISPOT assay, we next screened PBMCs from melanoma patients and healthy donors for spontaneous responses (FIGS. 9A and 9B). The PBMCs were stimulated for one week with a pool of 3-4 adjacent 20-mer arginase library peptides and low-dose IL-2 (120 U/mL). They were then set up for an IFNγ ELISPOT assay to screen for responses against each 20-mer peptide separately. […] Among these overlapping peptides, […]-200), and Arg(191-210) spanned a 50-amino-acid-long region that was deemed a hot-spot region since nearly all patients harbored a response against one or more of these peptides (FIG. 9A). The selected eight peptides were further used to screen for spontaneous immune responses against arginase-1 in PBMCs from eight healthy donors using IFNγ ELISPOT. […] Since we most frequently observed responses against arginase-1 peptides from the hot-spot region, we next analyzed whether longer peptides covering the same sequence could be used instead of four 20-mers. […] We then divided the arginase-1 hot-spot region into two 30-mer peptides that overlapped by 10 amino acids (peptides labelled by reference to start and end position): […]-190) and […]-210). These 30-mer peptides were used to check for responses in selected PBMCs from cancer patients and healthy donors, which had previously shown responses against the 20-mer hot-spot peptides. The PBMCs were stimulated for one week with either […]-190) or […]-210) in the presence of IL-2, and were then used in IFNγ ELISPOT.

[3] = system: TILs from eight melanoma patients; assay: Intracellular staining for IFNγ and TNFα release in melanoma TILs
Description: Flow cytometry analysis was performed on a FACSCantoTM II (BD Biosciences, San Jose CA, USA). Intracellular staining of cell cultures was performed after the cells were stimulated with 20-mere peptides for 5 hours or 30-mere peptides for 8h (BD GolgiPlugTM cat. 555029, was added after the first hour). The cells were then stained for surface markers, then washed and permeabilized by using Fixation/Permeabilization and Permeabilization Buffer (eBioscience, cat. 00-5123-43), according to manufacturer's instructions. Antibodies used: IFNγ-APC (cat. 341117), TNFα-BV421 (cat. 562783), CD4-FITC (cat. 347413), CD8-PerCP (cat. 345774) (all from BD Biosciences). Dead cells were stained using FVS510 (564406, BD Biosciences) according to manufacturer's instructions. To investigate the potential presence of arginase-specific T cells among tumor-infiltrating lymphocytes in cancer, we screened TILs from eight melanoma patients for responses against arginase-1 derived peptides. To this end, we performed intracellular staining for IFNγ and TNFα release in response to peptide stimulation. TILs were thawed and rested overnight without IL-2, and then stimulated for 5 h with three hot-spot immunogenic region 20-mer peptides (peptides labelled by reference to start and end position): […]-200). […] The percentage of IFNγ-producing cells was higher for […]-190) and […]-200) compared to […]-180), and the response against […]-200) was almost twice that against […]-180).

| Sequence | immune responses against overlapping 20mer peptides [1] | specific T-cell responses against Arg-derived peptide [1] | other results |
| --- | --- | --- | --- |
| TPLTTTSGNLHGQPVSFLLK (Peptide fragment of human Arginase 1) [Arg1-14, positions 131-150 of human Arginase 1] | Frequent immune responses were detected | – | – |
| LVLGGDHSL (Peptide fragment of human Arginase 1) [Arg2, positions 95-103 of human Arginase 1] | – | Strong responses | – |
| GLLSGLDIM (Peptide fragment of human Arginase 1) [Arg9, positions 268-276 of human Arginase 1] | – | Strong responses | – |
| TEEIYKTGLLSGLDIMEVNP (Peptide fragment of human Arginase 1) [Arg1-27, positions 261-280 of human Arginase 1] | Frequent immune responses were detected | – | spontaneous IFNγ ELISPOT responses against 20-mer library peptides [2]: highest and most abundant responses |
| KTLGIKYFSMTEVDRLGIGK (Peptide frgment of human Arginase 1) [Arg1-20, positions 191-210 of human Arginase 1] | Frequent immune responses were detected | – | spontaneous IFNγ ELISPOT responses against 20-mer library peptides [2]: highest and most abundant responses |
| DIMEVNPSL (Peptide fragment of human Arginase 1) [Arg10, positions 274-282 of human Arginase 1] | – | Strong responses | – |
| HARVHPDLGVIWVDAHTDIN (Peptide fragment of human Arginase 1) [Arg1-12, positions 111-130 of human Arginase 1] | Frequent immune responses were detected | – | spontaneous IFNγ ELISPOT responses against 20-mer library peptides [2]: highest and most abundant responses |
| DVDPGEHYILKTLGIKYFSMTEVDRLGIGK (Peptide fragment of human Arginase 1) [Arg(181-210), 30-mer, positions 181-210 of human Arginase 1] | – | – | IFNγ ELISPOT responses against longer hot-spot peptides ([2]; selected PBMCs from cancer patients and healthy donors, one week stimulation with IL-2, FIG. 10B, 10C): lower than those against the overlapping 20-mer peptides |
| SLGKTPEEVTRTVNTAVAIT (Peptide fragment of human Arginase 1) [Arg1-29, positions 281-300 of human Arginase 1] | Frequent immune responses were detected | – | – |
| DSPFQIVKNPRSVGKASEQL (Peptide fragment of human Arginase 1) [Arg1-7, positions 61-80 of human Arginase 1] | Frequent immune responses were detected | – | – |
| AKDIVYIGLRDVDPGEHYIL (Peptide fragment of human Arginase 1) [Arg1-18, positions 171-190 of human Arginase 1] | Frequent immune responses were detected | – | spontaneous IFNγ ELISPOT responses against 20-mer library peptides [2]: highest and most abundant responses; percentage of IFNγ-producing cells compared to Arg(161-180) ([3]; CD4+ T cells in TILs, 5 h stimulation): higher; IFNγ or TNFα release from CD8+ T cells ([3]; TILs, 5 h peptide stimulation): No IFNγ or TNFα release was observed; IFNγ release from CD4+ T cells ([3]; one of the TIL cultures, 5 h peptide stimulation, FIG. 10A): IFNγ was released from CD4+ T cells |
| VMEETLSYLLGRKKRPIHLS (Peptide fragment of human Arginase 1) [Arg1-22, positions 211-230 of human Arginase 1] | Frequent immune responses were detected | – | – |
| VMEETLSYL (Peptide fragment of human Arginase 1) [Arg5, positions 211-219 of human Arginase 1] | – | Strong responses | – |
| VLGGDHSLAI (Peptide fragment of human Arginase 1) [Arg15, positions 96-105 of human Arginase 1] | – | Strong responses | – |
| LRKAGLLEKLKEQECDVKDY (Peptide fragment of human Arginase 1) [Arg1-4, positions 31-50 of human Arginase 1] | Frequent immune responses were detected | – | spontaneous IFNγ ELISPOT responses against 20-mer library peptides [2]: highest and most abundant responses |
| MSAKSRTIGIIGAPFSKGQP (Peptide fragment of human Arginase 1) [Arg1-1, positions 1-20 of human Arginase 1] | Frequent immune responses were detected | – | – |
| ELKGKIPDVPGFSWVTPCIS (Peptide fragment of human Arginase 1) [Arg1-16, positions 151-170 of human Arginase 1] | Frequent immune responses were detected | – | – |
| GDLPFADIPNDSPFQIVKNP (Peptide fragment of human Arginase 1) [Arg1-6, positions 51-70 of human Arginase 1] | Frequent immune responses were detected | – | – |
| YLLGRKKRPI (Peptide fragment of human Arginase 1) [Arg14, positions 218-227 of human Arginase 1] | – | Strong responses | – |
| GRKKRPIHLSFDVDGLDPSF (Peptide fragment of human Arginase 1) [Arg1-23, positions 221-240 of human Arginase 1] | Frequent immune responses were detected | – | spontaneous IFNγ ELISPOT responses against 20-mer library peptides [2]: highest and most abundant responses |
| HGQPVSFLLKELKGKIPDVP (Peptide fragment of human Arginase 1) [Arg1-15, positions 141-160 of human Arginase 1] | Frequent immune responses were detected | – | – |
| LLKELKGKI [Arg3] | – | Strong responses | – |
| HLSFDVDGL (Peptide fragment of human Arginase 1) [Arg6, positions 228-236 of human Arginase 1] | – | Strong responses | – |
| SLGKTPEEV (Peptide fragment of human Arginase 1) [Arg7, positions 281-289 of human Arginase 1] | – | Strong responses | – |
| LLSGLDIMEV (Peptide fragment of human Arginase 1) [Arg11, positions 269-278 of human Arginase 1] | – | Strong responses | – |

Reference: US11981944B2, “Immunogenic arginase peptides” (IO Biotech ApS, priority 2016, dated 2024)
